Laboratory results: patent US6552027B2, “Quinazolines for treating brain tumor” (Parker Hughes Institute, priority 1998, dated 2003)
Several values for one entry are separate records, joined by “and”; a condition that tells them apart may be missing. Identical values can stand only once. Like-named read-outs stand apart in the source and are kept apart here.

How the values were obtained:
[1] = system: U373 human glioblastoma cells; test: SCID mouse xenograft model of human glioblastoma; details: for in vivo anti-tumor activity / tumor-free survival (in words): daily i.p. doses for 10 days starting the day after inoculation
Protocol: The right hind legs of the CB. 17 SCID mice were inoculated subcutaneously (s.c.) with 0.5×10^6 U373 human glioblastoma cells in 0.2 mL PBS. […] Daily treatments with PBS, unconjugated EGF (1 mg/kg/dose), and unconjugated WHI-P154 (1 mg/kg/dose) were used as controls. Mice were monitored daily for health status and tumor growth, and were sacrificed if they became moribund developed tumors which impeded their ability to attain food or water, at the end of the 3-month observation period. Tumors were measured using Vernier calipers twice weekly, and the tumor volumes were calculated according to the following formula (Friedman, S. H., mDolan, M. E., Pegg, A. E., Marcelli, S., Keir, S., Catino, J. J., Binger, D. D., Schold, S. C., Jr., 1995, Cancer Res., 55:2853-2857): [formula]
For histopathologic studies, tissues were fixed in 10% neutral buffered formalin, dehydrated, and embedded in paraffin by routine methods. Glass slides with affixed 6 micron tissue sections were prepared and stained with hematoxylin/eosin. Primary endpoints of interest were tumor growth and tumor-free survival outcome. Estimation of life table outcome and comparisons of outcome between groups were done, as previously reported (Waurzyniak, et al., 1997, Clinical Cancer Research 3:881-890; Anderson, et al., 1995, Cancer Res. 55:1321-1327; Uckun, et al., 1997, J. Clin. Oncol. 15:2214-2221).

U373 cells = test: EGF-stimulated cell adhesion to poly-L-lysine coated plates; format: cell-based, human; details: stimulation with 250 ng/ml EGF, baseline 33.2±5.2%, P<0.02
Protocol: To study the effects of quinazoline derivatives on EGF-stimulated cell adhesion, the trypsinized and recovered cells were incubated with varying concentrations ranging from 1 μM to 50 μM of quinazolines for 4 hours at 37° C., then stimulated with 250 ng/ml of EGF and examined for their ability to adhere to poly-L-lysine coated plates.
For the EGF stimulation experiments, the cells were plated in the presence of 250 ng/ml of EGF and allowed to adhere for 1 hour. The non-adherent cells were removed by gently washing the cells with PBS and then the adherent fraction was quantitated as described above for Example 6.

[2] = system: U373 human glioblastoma cell line; test: MTT cytotoxicity assay, U373 glioblastoma cells; details: U373
Protocol: (§1) The cytotoxicity assay of various compounds against human brain tumor cell lines was performed using the MTT (3-[4,5-dimethylthiazol-2-yl]-2,5-diphenyl tetrazolium bromide) assay (Boehringer Mannheim Corp., Indianapolis, Ind.). Briefly, exponentially growing brain tumor cells were seeded into a 96-well plate at a density of 2.5×10^4 cells/well and incubated for 36 hours at 37° C. prior to drug exposure. […] Triplicate wells were used for each treatment.
Human glioblastoma cell line U373 was obtained from American. Type Culture Collection (Rockville, Md.) and maintained as a continuous cell line in Dulbecco's modified Eagles's medium supplemented with 10% fetal bovine serum and antibiotics. The B-lineage acute lymphoblastic leukemia cell line Nalm-6 was used as a negative control.
(§2) The cells were incubated with the various compounds for 24-36 hours at 37° C. in a humidified 5% CO2 atmosphere. To each well, 10 μl of MTT (0.5 mg/ml final concentration) was added and the plates were incubated at 37° C. for 4 hours to allow MTT to form formazan crystals by reacting with metabolically active cells. The formazan crystals were solubilized overnight at 37° C. in a solution containing 10% SDS in 0.01 M HCl. The absorbence of each well was measured in a microplate reader (Labsystems) at 540 nm and a reference wavelength of 690 nm. To translate the OD540 values into the number of live cells in each well, the OD540 values were compared to those on standard OD540—versus—cell number curves generated for each cell line. The percent survival was calculated using the formula: [formula]
(§3) The IC50 values were calculated by non linear regression analysis.

[3] = system: U87 human glioblastoma cell line; test: MTT cytotoxicity assay, U87 glioblastoma cells; format: cell-based
Protocol: as §1, §2, §3
Apoptosis was also evaluated using the nick-end-labeling assay, as described for Example 3.

NALM-6 leukemia cells = test: MTT cytotoxicity assay, EGF-R negative leukemia cells (negative control line); format: cell-based
Protocol: Triplicate wells were used for each treatment.
Human glioblastoma cell line U373 was obtained from American.
The percent survival was calculated using the formula: [formula]

U373 glioblastoma cells = test: Uptake and internalization by immunofluorescence and confocal microscopy; format: cell-based, human; details: 5 μg/ml
Protocol: At the end of the incubation, cells were washed twice with PBS and fixed in 2% paraformaldehyde. The cells were permeabilized and non-specific binding sites were blocked with 2.5% BSA in PBS containing 0.1% Triton X-100 for 30 minutes. […] After rinsing with PBS, cells were incubated for 1 hour with a mixture of a goat anti-mouse IgG antibody conjugated to FITC (Amersham Corp., Arlington Heights, Ill.) and donkey anti-rabbit IgG conjugated to Texas Red (Amersham Corp.) at a dilution of 1:40 in PBS. Similarly, tubulin expression was examined by immunofluorescence using a monoclonal antibody against α-tubulin (Sigma Chemical Co, St. Louis, Mo.) at a dilution of 1:1000 and an anti-mouse IgG conjugated to FITC. Cells were washed in PBS and counterstained with toto-3 (Molecular Probes Inc., Eugene, Oreg.) for 10 minutes at a dilution of 1:1000. Cells were washed again with PBS and the coverslips were mounted with Vectashield (Vector Labs, Burlingame, Calif.) and viewed with a confocal microscope (Bio-Rad MRC 1024) mounted in a Nikon Labhophot upright microscope.

U373 glioma cells = test: Morphology by anti-α-tubulin / TOTO-3 immunofluorescence; format: cell-based, human; details: 25 μg/ml, 24 hours
Protocol: Cells were fixed in paraformaldehyde, immunostained with monoclonal antibody to EGF-R (green fluorescence) and counterstained with TOTO-3 (blue fluorescence) The immunostained cells were analyzed with a laser scanning confocal microscope. Blue fluorescence represents nuclei.
Immunofluorescence was used to (i) examine the surface expression of EGF-receptor (EGF-R) on brain tumor cells, (ii) evaluate the uptake of EGF-P154 by brain tumor cells and (iii) examine the morphologic features of EGF-P154 treated brain tumor cells.
At the end of the incubation, cells were washed twice with PBS and fixed in 2% paraformaldehyde. The cells were permeabilized and non-specific binding sites were blocked with 2.5% BSA in PBS containing 0.1% Triton X-100 for 30 minutes. […] After rinsing with PBS, cells were incubated for 1 hour with a mixture of a goat anti-mouse IgG antibody conjugated to FITC (Amersham Corp., Arlington Heights, Ill.) and donkey anti-rabbit IgG conjugated to Texas Red (Amersham Corp.) at a dilution of 1:40 in PBS. Similarly, tubulin expression was examined by immunofluorescence using a monoclonal antibody against α-tubulin (Sigma Chemical Co, St. Louis, Mo.) at a dilution of 1:1000 and an anti-mouse IgG conjugated to FITC. Cells were washed in PBS and counterstained with toto-3 (Molecular Probes Inc., Eugene, Oreg.) for 10 minutes at a dilution of 1:1000. […]

glioblastoma cells = test: In situ apoptosis assay (TdT-mediated dUTP nick-end labeling); format: cell-based, human; details: 36 hours after treatment; FIGS. 6D and 6E
Protocol: After a 36 hour incubation at 37° C. in a humidified 5% CO2 incubator, the supernatants were carefully aspirated and the cells were treated for 1-2 minutes with 0.1% trypsin. The detached cells were collected into a 15 ml centrifuge tube, washed with medium and pelleted by centrifugation at 1000 rpm for 5 minutes. Cells were resuspended in 50 μl of PBS, transferred to poly-L-lysine coated coverslips and allowed to attach for 15 minutes. The cells were washed once with PBS and incubated with equilibration buffer for 10 minutes at room temperature.
After removal of the equilibration buffer, cells were incubated for 1 hour at 37° C. with the reaction mixture containing terminal deoxynucleotidyl transferase (TdT) and […] for labeling of exposed 3′-hydroxyl ends of fragmented nuclear DNA. The cells were washed with PBS and incubated with anti-digoxigenin antibody conjugated to FITC for 1 hour at room temperature to detect the incorporated dUTP. After washing the cells with PBS, the coverslips were mounted onto slides with Vectashield containing propidium iodide (Vector Labs, Burlingame, Calif.) and viewed with a confocal laser scanning microscope. […] In control reactions, the TdT enzyme was omitted from the reaction mixture.

[4] = read-out: IC50 value derived from the composite cell survival curve
[5] = 500 μg/kg/day×10 days i.p., 5 mice

“EGF: Recombinant human EGF produced in E. coli; used unconjugated as control and as adhesion stimulus” was tested, and the “time at which tumors reached a size of 50 mm^3” value ([1]; 1 mg/kg/day×10 days i.p.) was 34.0 ± 3.0 days, the median tumor-free survival ([1]; 1 mg/kg/day×10 days i.p., N=5) was 23 days and the “in vivo anti-tumor activity / tumor-free survival (in words)” value [1] was “inability”. For the same substance, the “fraction capable of adhering to poly-L-lysine coated plates” value (U373 cells) was 58.48±4.7%.

“EGF-P154: WHI-P154 attached to recombinant human EGF by photochemical conjugation with the crosslinking agent Sulfo-SANPAH” was tested, and the IC50 [2, 4] was 0.881 µM, the IC50 ([2]; read-out: mean IC50 value, 3 independent experiments, FIG. 5A) was 0.813 µM and 0.811 µM and the IC50 ([2]; read-out: range of IC50 values, 3 independent experiments) was 0.588 to 0.95 µM. For the same substance, the IC50 ([3]; 3 independent experiments, FIG. 5A, read-out: mean IC50 value) was 0.62 ± 0.097 µM, the IC50 ([3]; 3 independent experiments, read-out: range of IC50 values) was 0.487 to 0.761 µM and the IC50 [3, 4] was 0.601 µM. The “cytotoxicity against EGF-R negative leukemia cells (in words)” value (NALM-6 leukemia cells) was “selective cytotoxicity to EGF-R positive glioblastoma cell lines only”, the “time at which internalized complexes were detected in the perinuclear region” value (U373 glioblastoma cells) was no more than 30 min and the “morphologic changes (in words)” value (U373 glioma cells) was “complete disruption of microtubules, marked shrinkage, nuclear fragmentation and inability to adhere to the substratum”. For the same substance, the “apoptotic nuclei by digoxigenin-dUTP incorporation (in words)” value (glioblastoma cells) was “many apoptotic yellow nuclei”, the “average size (mean±SE) of tumors at 40 days” value ([1]; 500 μg/kg/day dose level, P=0.0003) was 37.6±10.7 mm^3 and the “average size (mean±SE) of tumors at 20 days” value ([1]; 500 μg/kg/day dose level, P=0.002) was 1.0±1.1 mm^3. The “delay in reaching the 50 mm^3 tumor size versus control mice (PBS, EGF, or WHI-P154)” value ([1]; 500 μg/kg/day×10 days) was “approximately 11 days”, the “time at which tumors reached a size of 50 mm^3” value ([1]; 500 μg/kg/day×10 days i.p.) was 47.4 ± 7.1 days and the median tumor-free survival [1, 5] was 33 days. For the same substance, the “time within which all mice developed tumors” value [1, 5] was no more than 40 days, the “mice alive and free of detectable tumors for >58 days” value ([1]; 1 mg/kg/day, 10 consecutive days) was 40% and the “enhancement of in vivo anti-tumor activity of WHI-P154 by conjugation to EGF” value ([1]; 1 mg/kg/day×10 days, 53.2 nmol vs 2.9 nmol of WHI-P154) was greater than 8 fold. The “tumor size in the remaining 60% of the mice” value ([1]; 1 mg/kg/day×10 days, 58-day observation period) was no more than 50 mm^3, the “toxicity of the applied dose levels (in words)” value ([1]; 0.5 and 1 mg/kg/day×10 days i.p.) was “nontoxic” and the “in vivo anti-tumor activity / tumor-free survival (in words)” value [1] was “significantly improved tumor-free survival in a dose-dependent fashion”. The “in vivo anti-tumor activity / tumor-free survival (in words)” value ([1]; listed as EGF-P54) was “significant in vivo anti-tumor activity”.
